Reference: patent US11884661B2, “3-substituted propionic acids as αV integrin inhibitors” (BRISTOL-MYERS SQUIBB COMPANY, priority 2016, dated 2024)

Biological target: T1, human αVβ6 (Homo sapiens, UniProt P06756+P18564)
T1 construct: purchased R & D systems 3817-AV
Assay: human αVβ6 HTRF binding assay
Settings: recombinant human αVβ6 integrin, FITC-conjugated fibronectin
Summary of the method: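 Biotinylated recombinant αVβ6 (1.25 nM final) incubated with FITC-fibronectin (5 nM) 1 h at RT, then streptavidin-terbium (0.625 nM) added and incubated overnight at RT in the dark before HTRF read. Buffer: 20 mM Tris pH 7.4, 1 mM MgCl2, 1 mM MnCl2, 0.01% Tween 20, 0.01% BSA.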

T1 sequence (P06756 31-992 limits assumed): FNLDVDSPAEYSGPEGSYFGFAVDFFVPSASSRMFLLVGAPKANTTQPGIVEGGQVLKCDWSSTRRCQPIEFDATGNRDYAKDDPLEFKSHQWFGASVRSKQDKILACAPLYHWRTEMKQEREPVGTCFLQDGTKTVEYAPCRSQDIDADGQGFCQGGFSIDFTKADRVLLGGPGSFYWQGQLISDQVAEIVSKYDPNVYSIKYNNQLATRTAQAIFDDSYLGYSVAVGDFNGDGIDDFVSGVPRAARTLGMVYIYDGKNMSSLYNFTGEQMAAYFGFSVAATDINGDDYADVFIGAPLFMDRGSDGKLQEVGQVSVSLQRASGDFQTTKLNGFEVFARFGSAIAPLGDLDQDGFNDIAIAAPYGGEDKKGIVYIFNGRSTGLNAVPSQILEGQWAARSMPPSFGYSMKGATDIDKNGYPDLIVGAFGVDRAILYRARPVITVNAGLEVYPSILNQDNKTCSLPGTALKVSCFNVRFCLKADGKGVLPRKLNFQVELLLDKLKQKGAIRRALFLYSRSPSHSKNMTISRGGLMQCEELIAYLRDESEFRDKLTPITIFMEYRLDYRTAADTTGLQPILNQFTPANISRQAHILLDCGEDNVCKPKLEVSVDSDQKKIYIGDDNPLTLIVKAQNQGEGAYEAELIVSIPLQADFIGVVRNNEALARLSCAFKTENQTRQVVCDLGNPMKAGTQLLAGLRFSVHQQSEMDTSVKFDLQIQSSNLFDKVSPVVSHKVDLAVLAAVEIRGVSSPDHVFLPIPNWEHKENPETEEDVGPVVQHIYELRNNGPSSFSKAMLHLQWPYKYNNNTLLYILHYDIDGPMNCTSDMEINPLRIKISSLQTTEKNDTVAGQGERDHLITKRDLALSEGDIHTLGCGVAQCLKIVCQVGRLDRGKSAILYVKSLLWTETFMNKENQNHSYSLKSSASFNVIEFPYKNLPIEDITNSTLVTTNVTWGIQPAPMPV
T1 sequence (P18564 22-707 limits assumed): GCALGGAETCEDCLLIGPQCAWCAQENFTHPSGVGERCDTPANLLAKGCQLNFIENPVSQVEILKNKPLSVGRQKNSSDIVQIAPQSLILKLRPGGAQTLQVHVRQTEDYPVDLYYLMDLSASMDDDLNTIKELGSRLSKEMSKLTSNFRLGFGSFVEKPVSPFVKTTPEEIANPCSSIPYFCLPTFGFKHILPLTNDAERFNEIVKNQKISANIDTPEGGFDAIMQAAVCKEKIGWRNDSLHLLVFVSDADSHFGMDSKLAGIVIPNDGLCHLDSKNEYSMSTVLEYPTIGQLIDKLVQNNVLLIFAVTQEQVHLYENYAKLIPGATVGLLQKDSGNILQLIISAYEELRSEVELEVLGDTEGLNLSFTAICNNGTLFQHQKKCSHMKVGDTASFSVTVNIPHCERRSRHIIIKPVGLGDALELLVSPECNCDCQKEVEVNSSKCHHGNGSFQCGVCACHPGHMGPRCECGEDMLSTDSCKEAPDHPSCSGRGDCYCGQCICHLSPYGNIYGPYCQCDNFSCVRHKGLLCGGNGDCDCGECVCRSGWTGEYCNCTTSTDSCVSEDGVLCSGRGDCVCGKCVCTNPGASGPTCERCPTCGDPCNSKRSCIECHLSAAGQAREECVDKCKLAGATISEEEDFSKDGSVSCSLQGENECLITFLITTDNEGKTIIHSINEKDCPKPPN

| SMILES | IC50 [nM] |
| --- | --- |
| COc1ccc(C(CC(=O)O)c2ncc(CCCc3ccc4c(n3)NCCC4)s2)cn1 (single isomer, unassigned) [Example 20, 3-(6-Methoxypyridin-3-yl)-3-(5-(3-(5,6,7,8-tetrahydro-1,8-naphthyridin-2-yl)propyl)thiazol-2-yl)propanoic acid] | 18 |
| O=C(O)CC(c1cc(Cl)cc(Cl)c1)n1nccc1CCCc1ccc2c(n1)NCCC2 (racemic) [Example 75, (±)-3-(3,5-dichlorophenyl)-3-{5-[3-(5,6,7,8-tetrahydro-1,8-naphthyridin-2-yl)propyl]-1H-pyrazol-1-yl}propanoic acid] | 28 |
| Cc1ncc(C(CC(=O)O)n2nccc2CCC[C@H]2CCc3cccnc3N2)cn1 (stereo partly drawn) [Example 87, 3-(2-methylpyrimidin-5-yl)-3-(5-(3-((S)-1,2,3,4-tetrahydro-1,8-naphthyridin-2-yl)propyl)-1H-pyrazol-1-yl)propanoic acid] | 1380 |
| O=C(O)C[C@@H](c1ccc(OCc2ccccc2)nc1)n1ccc(CCCc2ccc3c(n2)NCCC3)n1 [Example 110, (S)-3-(6-(benzyloxy)pyridin-3-yl)-3-(3-(3-(5,6,7,8-tetrahydro-1,8-naphthyridin-2-yl)propyl)-1H-pyrazol-1-yl)propanoic acid] | 9.3 |
| COc1cncc(C(CC(=O)O)n2ccc(CCCc3ccc4c(n3)NCCCC4)n2)c1 (racemic) [Example 107, (±)-3-(5-methoxypyridin-3-yl)-3-(3-(3-(6,7,8,9-tetrahydro-5H-pyrido[2,3-b]azepin-2-yl)propyl)-1H-pyrazol-1-yl)propanoic acid] | 4.9 |
| COc1ccc(C(CC(=O)O)c2ncc(CCCCc3ccc4c(n3)NCCC4)s2)cc1F (single isomer, unassigned) [Example 41, (3-Fluoro-4-methoxyphenyl)-3-(5-(4-(5,6,7,8-tetrahydro-1,8-naphthyridin-2-yl)butyl)thiazol-2-yl)propanoic acid] | 5.9 |
| COc1ccc(C(CC(=O)O)n2cc(CCCCc3ccc4c(n3)NCCC4)cn2)cn1 (racemic) [Example 61, (±)-3-(6-Methoxypyridin-3-yl)-3-(4-(4-(5,6,7,8-tetrahydro-1,8-naphthyridin-2-yl)butyl)-1H-pyrazol-1-yl)propanoic acid] | 56 |
| COc1ccc(C(CC(=O)O)c2ncc(CCCc3ccc4c(n3)NCCC4)s2)cc1F (single isomer, unassigned) [Example 42, 3-(3-Fluoro-4-methoxyphenyl)-3-(5-(3-(5,6,7,8-tetrahydro-1,8-naphthyridin-2-yl)propyl)thiazol-2-yl)propanoic acid] | 28 |
| CCCCOC(=O)NC(Cc1cnn(CCc2ccc3c(n2)NCCC3)c1)C(=O)O (racemic) [Example 23, (±)-2-((Butoxycarbonyl)amino)-3-(1-(2-(5,6,7,8-tetrahydro-1,8-naphthyridin-2-yl)ethyl)-1H-pyrazol-4-yl)propanoic acid] | 1020 |
| Cc1ncc([C@H](CC(=O)O)n2ccc(CCC[C@H]3CCc4cccnc4N3)n2)cn1 [Example 86, (S)-3-(2-methylpyrimidin-5-yl)-3-(3-(3-((S)-1,2,3,4-tetrahydro-1,8-naphthyridin-2-yl)propyl)-1H-pyrazol-1-yl)propanoic acid] | 270 |
| COc1ncc(C(CC(=O)O)n2nccc2CCCc2ccc3c(n2)NCCCC3)cn1 (racemic) [Example 106, (±)-3-(2-methoxypyrimidin-5-yl)-3-(5-(3-(6,7,8,9-tetrahydro-5H-pyrido[2,3-b]azepin-2-yl)propyl)-1H-pyrazol-1-yl)propanoic acid] | 820 |
| COc1cc(C(CC(=O)O)n2nccc2CCCc2ccc3c(n2)NCCC3)ccn1 (racemic) [Example 73, (±)-3-(2-methoxypyridin-4-yl)-3-{5-[3-(5,6,7,8-tetrahydro-1,8-naphthyridin-2-yl)propyl]-1H-pyrazol-1-yl}propanoic acid] | 25 |
| COc1ccc(C(CC(=O)O)n2ccc(CCCc3ccc4c(n3)NCCC4)n2)cc1F (racemic) [Example 49, (±)-3-(3-Fluoro-4-methoxyphenyl)-3-(3-(3-(5,6,7,8-tetrahydro-1,8-naphthyridin-2-yl)propyl)-1H-pyrazol-1-yl)propanoic acid] | 24 |
| COc1ccc(C(CC(=O)O)c2ncc(CCCc3ccc4c(n3)NCCC4)s2)cc1F (single isomer, unassigned) [Example 43, 3-(3-Fluoro-4-methoxyphenyl)-3-(5-(3-(5,6,7,8-tetrahydro-1,8-naphthyridin-2-yl)propyl)thiazol-2-yl)propanoic acid] | 18 |
| O=C(O)CC(c1ccc2nccnc2c1)c1nc(CCCCc2ccc3c(n2)NCCC3)cs1 (single isomer, unassigned) [Example 119, 3-(quinoxalin-6-yl)-3-(4-(4-(5,6,7,8-tetrahydro-1,8-naphthyridin-2-yl)butyl)thiazol-2-yl)propanoic acid] | 99 |

Next, values leading:

| IC50 [nM] | SMILES |
| --- | --- |
| 210 | CN(C)C(=O)c1ccc(C(CC(=O)O)c2nc(CCCc3ccc4c(n3)NCCC4)cs2)cc1 (single isomer, unassigned) [Example 137, 3-(4-(dimethylcarbamoyl)phenyl)-3-(4-(3-(5,6,7,8-tetrahydro-1,8-naphthyridin-2-yl)propyl)thiazol-2-yl)propanoic acid] |
| 180 | COc1ccc(C(CC(=O)O)c2nc(CCCCc3ccc4c(n3)NCCC4)cs2)cc1OC (single isomer, unassigned) [Example 123, 3-(3,4-dimethoxyphenyl)-3-(4-(4-(5,6,7,8-tetrahydro-1,8-naphthyridin-2-yl)butyl)thiazol-2-yl)propanoic acid] |
| 28 | CCOc1ncc(C(CC(=O)O)c2nc(CCCCc3ccc4c(n3)NCCC4)cs2)cn1 (single isomer, unassigned) [Example 129, 3-(2-ethoxypyrimidin-5-yl)-3-(4-(4-(5,6,7,8-tetrahydro-1,8-naphthyridin-2-yl)butyl)thiazol-2-yl)propanoic acid] |
| 91 | COc1ccc(C(CC(=O)O)c2nc(CCCCc3ccc4c(n3)NCCC4)cn2C)cc1F (single isomer, unassigned) [Example 168, 3-(3-fluoro-4-methoxyphenyl)-3-(1-methyl-4-(4-(5,6,7,8-tetrahydro-1,8-naphthyridin-2-yl)butyl)-1H-imidazol-2-yl)propanoic acid] |
| 12 | COc1ccc(C(CC(=O)O)c2nc(CCCC3CCc4cccnc4N3)cs2)cc1F (single isomer, unassigned) [Example 161, 3-(3-fluoro-4-methoxyphenyl)-3-(4-(3-(1,2,3,4-tetrahydro-1,8-naphthyridin-2-yl)propyl)thiazol-2-yl)propanoic acid] |
| 260 | COc1ccc(C(CC(=O)O)c2nc(CCCC3CCc4cccnc4N3)cs2)cn1 (single isomer, unassigned) [Example 156, 3-(6-methoxypyridin-3-yl)-3-(4-(3-(1,2,3,4-tetrahydro-1,8-naphthyridin-2-yl)propyl)thiazol-2-yl)propanoic acid] |
| 280 | COc1ccc(C(CC(=O)O)c2ncc(CCCCc3ccc4c(n3)NCCC4)n2C)cc1F (single isomer, unassigned) [Example 166, 3-(3-fluoro-4-methoxyphenyl)-3-(1-methyl-5-(4-(5,6,7,8-tetrahydro-1,8-naphthyridin-2-yl)butyl)-1H-imidazol-2-yl)propanoic acid] |
